In ChEMBL document CHEMBL1149422, “Expedited SAR study of high-affinity ligands to the alpha(2)delta subunit of voltage-gated calcium channels: Generation of a focused library using a solution-phase Sn2Ar coupling methodology” (Bioorg Med Chem Lett, 2006):

The molecules below were run against Voltage-dependent calcium channel subunit alpha-2/delta-1 (Homo sapiens, UniProt P54289) (assay: [3H]Gabapentin binding in human A710 membrane expressing alpha-2delta subunit of calcium channel).
Type: cell membranes

Chain of Voltage-dependent calcium channel subunit alpha-2/delta-1 (P54289 25-956 limits assumed): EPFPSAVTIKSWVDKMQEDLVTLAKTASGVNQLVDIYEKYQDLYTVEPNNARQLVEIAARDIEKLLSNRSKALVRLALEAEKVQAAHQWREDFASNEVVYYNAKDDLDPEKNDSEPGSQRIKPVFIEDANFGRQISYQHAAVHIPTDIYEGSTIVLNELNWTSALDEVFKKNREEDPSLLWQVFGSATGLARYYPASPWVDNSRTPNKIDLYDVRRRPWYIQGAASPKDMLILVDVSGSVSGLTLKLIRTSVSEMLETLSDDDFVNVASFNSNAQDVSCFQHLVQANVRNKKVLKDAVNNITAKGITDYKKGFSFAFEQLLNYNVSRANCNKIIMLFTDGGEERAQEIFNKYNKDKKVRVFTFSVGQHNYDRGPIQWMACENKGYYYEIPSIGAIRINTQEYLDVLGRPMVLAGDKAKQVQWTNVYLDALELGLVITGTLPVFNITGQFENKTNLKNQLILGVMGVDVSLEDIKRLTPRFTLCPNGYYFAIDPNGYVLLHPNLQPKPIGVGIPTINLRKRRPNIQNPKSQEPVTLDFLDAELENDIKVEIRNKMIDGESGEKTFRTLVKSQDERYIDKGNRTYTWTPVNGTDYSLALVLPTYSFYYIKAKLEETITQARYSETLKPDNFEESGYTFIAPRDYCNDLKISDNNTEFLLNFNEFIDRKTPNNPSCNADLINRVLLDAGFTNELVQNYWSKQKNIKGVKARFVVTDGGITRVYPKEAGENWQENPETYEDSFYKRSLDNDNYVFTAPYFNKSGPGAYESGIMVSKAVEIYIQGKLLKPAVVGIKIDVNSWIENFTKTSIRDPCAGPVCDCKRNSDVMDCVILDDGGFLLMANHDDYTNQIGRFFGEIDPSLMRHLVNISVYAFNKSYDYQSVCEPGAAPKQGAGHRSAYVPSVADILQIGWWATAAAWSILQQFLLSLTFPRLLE
Chain of Voltage-dependent calcium channel subunit alpha-2/delta-1 (P54289 957-1103 limits assumed): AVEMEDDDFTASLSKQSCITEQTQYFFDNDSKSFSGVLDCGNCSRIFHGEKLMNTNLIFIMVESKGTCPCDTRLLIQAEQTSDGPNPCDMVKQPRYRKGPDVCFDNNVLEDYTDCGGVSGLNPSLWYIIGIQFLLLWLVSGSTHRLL

Row | Compound | IC50 [nM]
1 | CCOc1ccc(-n2c(C)c3c(C)nnc(N4CCC(NC(C)=O)C4)c3c2C)cc1 (stereo not drawn) | 144
2 | CCOc1ccc(-n2c(C)c3c(C)nnc(N4CCC(c5ccccc5)(c5ccccc5)C4)c3c2C)cc1 | 153
3 | CCOc1ccc(-n2c(C)c3c(C)nnc(N4CCN(C)CC4)c3c2C)cc1 | 2930
4 | CCOc1ccc(-n2c(C)c3c(C)nnc(N4CC(C)CC(C)C4)c3c2C)cc1 (stereo not drawn) | 702
5 | CCOc1ccc(-n2c(C)c3c(C)nnc(NCC4CCCO4)c3c2C)cc1 (stereo not drawn) | 50
6 | CCOc1ccc(-n2c(C)c3c(C)nnc(Nc4ccc5[nH]ncc5c4)c3c2C)cc1 | 36
7 | CCOc1ccc(-n2c(C)c3c(C)nnc(Nc4ccc5[nH]nnc5c4)c3c2C)cc1 | 346
8 | CCOc1ccc(-n2c(C)c3c(C)nnc(NCc4cccc5cccnc45)c3c2C)cc1 | 63
9 | CCOc1ccc(-n2c(C)c3c(C)nnc(N4CC(C)OC(C)C4)c3c2C)cc1 (stereo not drawn) | > 3000
10 | CCOc1ccc(-n2c(C)c3c(C)nnc(N4CCC5=C(C4)NC4C=CC=CC54)c3c2C)cc1 (stereo not drawn) | 135
11 | CCOc1ccc(-n2c(C)c3c(C)nnc(Nc4ccc5[nH]ccc5c4)c3c2C)cc1 | 30
12 | CCOc1ccc(-n2c(C)c3c(C)nnc(N4CCOCC4)c3c2C)cc1 | 1690
13 | CCOc1ccc(-n2c(C)c3c(C)nnc(N4CCC(C)CC4)c3c2C)cc1 | 370
14 | CCOc1ccc(-n2c(C)c3c(C)nnc(NC(C)C)c3c2C)cc1 | 67
15 | CCOc1ccc(-n2c(C)c3c(C)nnc(NCc4cccc5[nH]ccc45)c3c2C)cc1 | 70
16 | CCOc1ccc(-n2c(C)c3c(C)nnc(NCc4cnn(CC)c4)c3c2C)cc1 | 64
17 | CCCCNc1nnc(C)c2c(C)n(-c3ccc(OCC)cc3)c(C)c12 | 61
18 | CCOc1ccc(-n2c(C)c3c(C)nnc(N4CCCC4)c3c2C)cc1 | 180
19 | CCOc1ccc(-n2c(C)c3c(C)nnc(NCC(C)CC)c3c2C)cc1 (stereo not drawn) | 84
20 | CCOc1ccc(-n2c(C)c3c(C)nnc(NCc4ccc5c(n4)NCCC5)c3c2C)cc1 | 32
21 | CCOc1ccc(-n2c(C)c3c(C)nnc(NCc4cnn(C)c4)c3c2C)cc1 | 69
22 | CCOc1ccc(-n2c(C)c3c(C)nnc(NC(C)CC(C)C)c3c2C)cc1 (stereo not drawn) | 296

Second part, the molecule after the results:

Row | IC50 [nM] | Compound
23 | 37 | CCOc1ccc(-n2c(C)c3c(C)nnc(NCc4cccc(Cl)c4)c3c2C)cc1
24 | 239 | CCOc1ccc(-n2c(C)c3c(C)nnc(NCc4cccc(OC)c4)c3c2C)cc1
25 | 68 | CCOc1ccc(-n2c(C)c3c(C)nnc(NCc4n[nH]cc4C4CC4)c3c2C)cc1
26 | 94 | CCOc1ccc(-n2c(C)c3c(C)nnc(NCc4ccc(F)cc4)c3c2C)cc1
27 | 65 | CCOc1ccc(-n2c(C)c3c(C)nnc(NCc4ccc(Cl)cc4)c3c2C)cc1
28 | > 3000 | CCOc1ccc(-n2c(C)c3c(C)nnc(NCc4ccccn4)c3c2C)cc1
29 | 18 | CCOc1ccc(-n2c(C)c3c(C)nnc(NCc4cccc(F)c4)c3c2C)cc1
30 | 702 | CCOc1ccc(-n2c(C)c3c(C)nnc(NCc4ccc(OC)cc4)c3c2C)cc1
31 | 54 | CCOc1ccc(-n2c(C)c3c(C)nnc(NC4CCc5ccccc54)c3c2C)cc1 (stereo not drawn)
32 | 161 | CCOc1ccc(-n2c(C)c3c(C)nnc(NC4CCCc5ccccc54)c3c2C)cc1 (stereo not drawn)
33 | 207 | CCOc1ccc(-n2c(C)c3c(C)nnc(Nc4ccc5c(c4)OCO5)c3c2C)cc1
34 | 199 | CCOc1ccc(-n2c(C)c3c(C)nnc(Nc4ccc5c(c4)CCC5)c3c2C)cc1
35 | 119 | CCOc1ccc(-n2c(C)c3c(C)nnc(NCc4cccnc4)c3c2C)cc1
36 | 84 | CCOc1ccc(-n2c(C)c3c(C)nnc(N4C[C@@H]5CCc6ccccc6[C@@H]5C4)c3c2C)cc1
37 | 76 | CCOc1ccc(-n2c(C)c3c(C)nnc(NCc4ccccc4OC)c3c2C)cc1
38 | 84 | CCOc1ccc(-n2c(C)c3c(C)nnc(NCc4ccncc4)c3c2C)cc1
